# ChEMBL document CHEMBL1201862, “PubChem BioAssay data set” (2004)
# Calls of active or inactive are those of the source. For most assays here, no stated cut-off is given here; in the data, actives have a measured EC50 and inactives only a lower limit.
# How the values were obtained:
# [1] = target: T1, Heat shock factor protein 1 (Mus musculus, UniProt P38532); experiment: decrease of HSF1-responsive luciferase luminescence – cell-based, NIH3T3, dose retest, confirmation (AID 2382); type: functional;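 further: NIH3T3 fibroblasts with HSF1-driven luciferase reporter stressed by proteasome inhibitor MG132; luminescence from HSF1-driven luciferase expression after 8 hours of MG132 stress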
# T1 sequence (P38532 whole entry): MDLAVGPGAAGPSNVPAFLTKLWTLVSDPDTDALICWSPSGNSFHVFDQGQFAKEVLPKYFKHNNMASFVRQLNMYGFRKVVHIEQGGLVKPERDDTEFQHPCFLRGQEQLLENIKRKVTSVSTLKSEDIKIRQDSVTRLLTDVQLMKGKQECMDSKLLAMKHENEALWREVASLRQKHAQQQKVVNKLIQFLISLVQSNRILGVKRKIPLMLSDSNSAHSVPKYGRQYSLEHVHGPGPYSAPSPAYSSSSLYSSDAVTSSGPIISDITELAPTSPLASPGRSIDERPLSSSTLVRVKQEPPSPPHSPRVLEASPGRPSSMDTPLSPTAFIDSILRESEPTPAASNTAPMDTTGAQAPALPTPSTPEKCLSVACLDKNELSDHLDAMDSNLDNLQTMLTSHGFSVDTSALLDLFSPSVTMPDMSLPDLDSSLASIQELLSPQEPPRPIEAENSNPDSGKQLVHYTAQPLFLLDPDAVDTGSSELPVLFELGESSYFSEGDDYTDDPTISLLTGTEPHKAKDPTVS
# [2] = luciferase reporter signal suppression in cells – H4 neuroglioma cells, luminescence, dose response (AID 1990); type: functional, cell-based
# [3] = Luminescence Cell-Based Dose Response HTS to Identify Inhibitors of 5'UTR Stem-Loop Driven Prion Protein mRNA Translation in H4 Neuroglioblastoma Cells. [Related pubchem assays: 1827 (Project Summary), 1813 (Primary HTS)]; type: functional
# [4] = alpha-synuclein stem-loop luciferase translation blockers – H4 neuroglioma cells, luminescence, confirmation (AID 1988); type: functional, cell-based
# Paired box protein Pax-8 = Paired box protein Pax-8 (Homo sapiens, UniProt Q06710); experiment: PAX8 transcriptional activity inhibition in RMG-I – RMG-I cells, luciferase, cherry-pick, dose response (AID 687027); type: functional, cell-based;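 further: luciferase reporter driven by Pax8 target thyroperoxidase promoter measured by SteadyGlo luminescence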
# Sequence of Paired box protein Pax-8 (Q06710 whole entry): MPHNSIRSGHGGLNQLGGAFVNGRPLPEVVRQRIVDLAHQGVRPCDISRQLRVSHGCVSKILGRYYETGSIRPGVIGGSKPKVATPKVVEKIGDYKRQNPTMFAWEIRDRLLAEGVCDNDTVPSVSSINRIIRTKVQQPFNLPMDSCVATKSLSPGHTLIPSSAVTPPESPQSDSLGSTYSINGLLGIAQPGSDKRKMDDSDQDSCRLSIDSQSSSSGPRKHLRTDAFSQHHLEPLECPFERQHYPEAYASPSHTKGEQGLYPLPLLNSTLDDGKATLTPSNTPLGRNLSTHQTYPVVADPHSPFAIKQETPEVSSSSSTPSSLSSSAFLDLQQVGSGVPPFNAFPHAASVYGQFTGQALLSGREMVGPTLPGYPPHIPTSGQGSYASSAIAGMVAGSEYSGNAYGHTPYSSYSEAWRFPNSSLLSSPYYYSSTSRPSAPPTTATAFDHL
# [5] = system: Streptococcus sp. 'group A'; experiment: Streptococcus pyogenes SK(-)GAS viability under kanamycin – luminescence, BacTiterGlo, confirmation, counter-screen for streptokinase expression inhibitor project, dose response (AID 1900); type: functional, organism-based
# Streptococcus = experiment: GAS UMAA2166 growth inhibition – luminescence, BacTiterGlo, counter-screen for streptokinase expression inhibitor project, dose response (AID 1915); type: functional, organism-based;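 further: potency for reduction of bacterial viability or growth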
# [6] = target: T2, Carboxy-terminal domain RNA polymerase II polypeptide A small phosphatase 1 (Homo sapiens, UniProt Q9GZU7); experiment: CTDSP1 inhibitors, concentration-response, biochemical, absorbance readout, ultra-high-throughput screen actives (AID 540297); type: functional
# T2 sequence (Q9GZU7 whole entry): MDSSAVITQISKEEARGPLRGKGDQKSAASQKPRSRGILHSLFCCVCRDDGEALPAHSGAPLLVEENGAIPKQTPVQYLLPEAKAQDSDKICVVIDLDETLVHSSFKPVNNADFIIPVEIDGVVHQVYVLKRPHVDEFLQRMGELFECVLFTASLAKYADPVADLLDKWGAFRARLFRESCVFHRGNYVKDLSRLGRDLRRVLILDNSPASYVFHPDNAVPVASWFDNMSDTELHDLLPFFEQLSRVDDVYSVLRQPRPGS
# [7] = NIH-3T3 fibroblast cytotoxicity, dose response, cytotoxicity control, cell-based, fluorescence, Alamar Blue, secondary assay (AID 2327); type: functional;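 further: NIH-3T3 mouse fibroblasts cultured with fluconazole at 8 µg/mL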
# [8] = fluconazole-exposed Candida albicans growth modulators – fluorescence, retest, confirmation (AID 2467); type: functional, cell-based
# [9] = target: T3, Polyadenylate-binding protein 1 (Homo sapiens, UniProt P11940); experiment: MLLE binding blockers, Cy5 peptide tracer – biochemical, fluorescence polarization, Cy5-PAM2 peptide, secondary, miRNA deadenylation inhibitor project, dose response (AID 602260); type: functional; details: read-out: IC50_Mean
# T3 sequence (P11940 whole entry, the tested form may be a part): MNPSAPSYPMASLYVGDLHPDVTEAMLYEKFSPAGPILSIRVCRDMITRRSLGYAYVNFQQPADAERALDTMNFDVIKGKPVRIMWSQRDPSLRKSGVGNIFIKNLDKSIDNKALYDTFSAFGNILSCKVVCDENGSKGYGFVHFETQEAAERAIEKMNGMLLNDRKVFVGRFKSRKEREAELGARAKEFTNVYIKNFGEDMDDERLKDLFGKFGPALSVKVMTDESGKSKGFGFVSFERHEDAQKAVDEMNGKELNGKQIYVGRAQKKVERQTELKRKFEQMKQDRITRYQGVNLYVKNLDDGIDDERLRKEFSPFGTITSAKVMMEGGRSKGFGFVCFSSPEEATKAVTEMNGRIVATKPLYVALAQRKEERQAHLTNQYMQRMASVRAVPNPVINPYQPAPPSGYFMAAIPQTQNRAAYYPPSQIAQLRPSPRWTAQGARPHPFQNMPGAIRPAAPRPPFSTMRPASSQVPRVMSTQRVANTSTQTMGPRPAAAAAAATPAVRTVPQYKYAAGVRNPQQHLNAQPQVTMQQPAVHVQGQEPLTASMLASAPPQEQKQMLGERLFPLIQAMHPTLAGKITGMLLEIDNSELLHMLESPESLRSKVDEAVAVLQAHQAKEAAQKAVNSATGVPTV
# [10] = target: T3, Polyadenylate-binding protein 1; experiment: MLLE domain peptide-binding blockers, IC50 – biochemical, fluorescence polarization, FITC-PAM2 peptide, dose response (AID 602259); type: functional; details: read-out: IC50_Mean
# [11] = Luminescence Cell-Based Dose Retest to Confirm Inhibitors of Cancer Stem Cells. [Related pubchem assays (depositor defined):AID2717, AID2721]; type: functional; details: Homo sapiens
# [12] = viability of uninfected HEp-2 cells – cell-based, HTS, cytotoxicity control for RSV inhibitor project, dose response (AID 2410); type: functional; details: human respiratory syncytial virus
# [13] = Trypanosoma cruzi growth suppression in host cells – NIH3T3 host cells, beta-gal luminescence, confirmation (AID 2044); type: functional, cell-based;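 further: intracellular parasites grown in NIH/3T3 mouse fibroblasts as host cells; luminescent beta-galactosidase reporter signal from transgenic T. cruzi replicating inside host cells; inhibitors lower the luminescence signal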
# [14] = NIH3T3 cell viability loss – ATP luminescence, mouse fibroblasts, counter-screen, dose response (AID 2010); type: functional, cell-based;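 further: cells exposed to compound for about 90 hours before reading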
# [15] = viability of HCT116 lacking mutant beta-catenin – cell-based, human colon tumor, dose response (AID 1045); type: functional;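 further: HCT116 colon tumor cells with beta catenin knocked out; cells exposed to compound for 60 hours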
# [16] = target: FAD-linked sulfhydryl oxidase ALR (Homo sapiens, UniProt P55789); experiment: ALR-catalysed DTT oxidation blockers – biochemical, H2O2 detection, luminescence, cherry-pick, dose response (AID 493248)
# Sequence of FAD-linked sulfhydryl oxidase ALR (P55789 whole entry): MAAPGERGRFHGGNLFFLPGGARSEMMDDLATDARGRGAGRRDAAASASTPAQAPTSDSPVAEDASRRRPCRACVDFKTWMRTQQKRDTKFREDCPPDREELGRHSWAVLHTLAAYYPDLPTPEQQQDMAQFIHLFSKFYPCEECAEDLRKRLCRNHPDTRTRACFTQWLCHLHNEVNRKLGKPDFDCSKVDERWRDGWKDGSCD
smiles,measurement,setting,value
COc1cc(O)nc(SCC(=O)Nc2nc3c(s2)CCCC3)n1,EC50,[1],> 195 µM (not active)
COc1ccccc1N1CCN(S(=O)(=O)CCNC(=O)c2ccc(Br)o2)CC1,EC50,[2],> 120 µM (not active)
same,EC50,[3],> 120 µM (not active)
same,EC50,[4],> 120 µM (not active)
O=C(CCl)Nc1cc2[nH]c(O)nc2cc1Br,AC50,Paired box protein Pax-8,3.95 µM (active)
O=C(Nc1nnc(SCc2c(Cl)cccc2Cl)s1)C1CC(=O)N(c2ccc3c(c2)OCCO3)C1 (configuration not stated),EC50,[5],44.2 µM (active)
same,EC50,Streptococcus,31.8 µM (active)
same,IC50,[6],4.6 µM (active)
CCOC(=O)CSC1=C(C#N)C(c2ccccc2C)C2=C(O)CCCC2=N1 (configuration not stated),EC50,[1],> 195 µM (not active)
O=c1oc2c(-c3ccc([N+](=O)[O-])cc3)cc(O)cc2s1,IC50,[6],6.91 µM (active)
CCN(c1ccccc1)S(=O)(=O)c1ccc(Cl)c(NC(=O)CN2C(=O)NC3(CCCC3)C2=O)c1,EC50,[7],> 150 µM (inconclusive)
same,EC50,[8],4.42 µM (active)
COc1cc2c(cc1OC)C(c1ccccc1O)N(C1CC(=O)N(c3ccccc3)C1=O)CC2 (configuration not stated),IC50,[9],> 66 µM (inactive)
same,IC50,[10],> 66 µM (inactive)
Cc1ccc(C)c2nc(O)c(CCNC(=O)C(C)(C)C)cc12,EC50,[1],> 195 µM (not active)
O=C(Nc1cc(S(=O)(=O)Nc2ccc(Cl)cc2)ccc1N1CCCCC1)c1ccc(F)cc1Cl,AC50,[11],2.07 µM (active)
same,IC50,[9],> 66 µM (inactive)
same,IC50,[10],> 66 µM (inactive)
C=CCSC1=C(C#N)C(c2ccccc2OCC)C(C#N)C(=O)N1 (configuration not stated),IC50,[9],> 66 µM (inactive)
same,IC50,[10],> 66 µM (inactive)
Cc1cccc(OCC(O)CN2CCN(S(=O)(=O)c3ccc(C)cc3C)CC2)c1 (configuration not stated),EC50,[2],> 120 µM (not active)
same,EC50,[3],> 120 µM (not active)
same,EC50,[4],15.9 µM (active)
CC(=O)c1ccc(NC(=O)CCS(=O)(=O)c2ccc3c(c2)n(C)c(=O)c(=O)n3C)cc1,IC50,[6],> 80 µM (inactive)
COCCN(Cc1cc2cc3c(cc2n2nnnc12)OCO3)C(=O)c1ccccc1F,EC50,[2],> 120 µM (not active)
same,EC50,[3],> 120 µM (not active)
same,EC50,[4],> 120 µM (not active)
CN(c1ccccc1)S(=O)(=O)c1cccc(NC(=O)CN2CCc3ccccc3C2)c1,CC50,[12],22.4 µM (active)
Cc1c(NC(=S)NC(=O)CSc2ccc(Cl)cc2)cccc1C(=O)O,IC50,[9],> 66 µM (inactive)
same,IC50,[10],> 66 µM (inactive)
Oc1nc(SCCOc2cccc3ccccc23)nc2ccccc12,EC50,[2],15.4 µM (active)
same,EC50,[3],> 120 µM (not active)
same,EC50,[4],> 120 µM (not active)
O=C(O)c1cccc(-n2cccc2/C=C2\SC(=O)N(Cc3ccccc3F)C2=O)c1,IC50,[6],4.62 µM (active)
C=C(C)COc1ccc(-c2n[nH]cc2-c2ccc(OC)cc2)c(O)c1,CC50,[12],14.8 µM (active)
same,AC50,[11],7.79 µM (active)
Cc1nc(Sc2ccc(Cl)cc2)c(C#N)c(C)c1[N+](=O)[O-],CC50,[12],13.2 µM (active)
Cc1c(C(=O)C(=O)N2c3ccc(F)cc3CCC2C)c2ccccc2n1C (configuration not stated),EC50,[2],10.5 µM (active)
same,EC50,[3],12.2 µM (active)
same,EC50,[4],5.47 µM (active)
CC(C)(C)c1cc(C(=O)NNc2ccc(OC(F)(F)F)cc2)n(Cc2ccccc2)n1,EC50,[7],> 160 µM (inactive)
same,EC50,[8],3.05 µM (active)
COc1ccc(C(=O)NC2(C(F)(F)F)N=C3SCCN3C2=O)cc1 (configuration not stated),IC50,[9],> 66 µM (inactive)
same,IC50,[10],> 66 µM (inactive)
CCCN(CCC)S(=O)(=O)c1ccc(NC(=O)c2cc(C(=O)OC)cc([N+](=O)[O-])c2)cc1,EC50,[1],> 195 µM (not active)
same,EC50,[13],0.323 µM (active)
same,EC50,[14],> 60 µM (inconclusive)
CCOC(=O)COc1ccc(S(=O)(=O)N2CCN(c3ccccc3F)CC2)cc1,EC50,[7],> 150 µM (inconclusive)
same,EC50,[8],> 38 µM (not active)
Cc1ccccc1C(=O)NCCNc1ccc([N+](=O)[O-])cc1,EC50,[2],> 120 µM (not active)
same,EC50,[3],> 120 µM (not active)
same,EC50,[4],> 120 µM (not active)
N#Cc1c(NC(=O)c2nc3ncccn3n2)sc2c1CCCCC2,EC50,[7],> 150 µM (inactive)
same,EC50,[8],0.403 µM (active)
CC(=O)ON1C(C)(C)CC(OC(=O)c2ccccc2)CC1(C)C,EC50,[15],124 µM (active)
Cc1c(NC(=S)NC(=O)c2cccc3ccccc23)cccc1C(=O)O,IC50,[9],> 66 µM (inactive)
same,IC50,[10],> 66 µM (inactive)
CS(=O)(=O)N(CC(=O)NCCSC1CCCCC1)c1ccc2c(c1)OCO2,EC50,[1],> 195 µM (not active)
CCOC(=O)C1=C(C)N(C)C(C)=C(C(=O)OCC)C1c1ccc(C(=O)OC)cc1,EC50,[2],35.5 µM (active)
same,EC50,[3],> 120 µM (not active)
same,EC50,[4],37.9 µM (active)
COc1ccccc1NC(=O)CN1CCN(c2ccccc2OC)CC1,EC50,[7],> 160 µM (inactive)
same,EC50,[8],> 38 µM (not active)
CCC1=CC(c2ccccc2)n2ncnc2N1 (configuration not stated),EC50,[1],> 195 µM (not active)
O=C(Nc1cc(F)cc(F)c1)c1ccc(NCCCN2CCCCCC2)c([N+](=O)[O-])c1,EC50,[7],105 µM (active)
same,EC50,[8],> 38 µM (not active)
COc1cc(/C=C/C(=O)NC(C)C2CC3CCC2C3)cc(OC)c1OC (configuration not stated),EC50,[1],> 195 µM (not active)
Cc1ccc(S(=O)(=O)CC(=O)Nc2nnc(C(C)(C)C)s2)cc1,IC50,[9],> 66 µM (inactive)
same,IC50,[10],> 66 µM (inactive)
CC1CCN(c2ccc(NC(=S)NC(=O)c3ccc(-c4cccc([N+](=O)[O-])c4)o3)cc2)CC1,IC50,[9],> 66 µM (inactive)
same,IC50,[10],> 66 µM (inactive)
O=[N+]([O-])c1cccc(CN2[C@@H](Cc3ccccc3)COCCS2(=O)=O)c1,EC50,[1],> 195 µM (not active)
O=C(O)CC(SCC(=O)Nc1ccc(S(=O)(=O)N2CCCC2)cc1)C(=O)O (configuration not stated),IC50,[9],> 66 µM (inactive)
same,IC50,[10],> 66 µM (inactive)
O=C(Nc1ccc2c(c1)CCCN2C(=O)c1cccs1)c1c(F)cccc1Cl,CC50,[12],24.1 µM (active)
COc1ccc(Nc2ccc(N3C(=O)CC(C)C3=O)cc2[N+](=O)[O-])cn1 (configuration not stated),IC50,[9],> 66 µM (inactive)
same,IC50,[10],48.4 µM (inactive)
Cc1nc(NS(=O)(=O)c2ccc(Br)cc2)c2c3c(sc2n1)CCC3,EC50,[7],> 160 µM (inactive)
same,EC50,[8],1.93 µM (active)
Cc1cccc2cc(CN(CC3CCCO3)C(c3nnnn3Cc3ccco3)C(C)C)c(O)nc12 (configuration not stated),CC50,[12],16.8 µM (active)
COc1ccc(S(=O)(=O)N2CCCCN3[C@H](C2)[C@@H](c2ccc(C#CC(C)C)cc2)[C@@H]3CO)cc1,AC50,Paired box protein Pax-8,6.14 µM (active)
CC(C)CC#Cc1ccc2c(c1)O[C@@H](CN(C)Cc1ccncc1)[C@H](C)CN([C@@H](C)CO)S2(=O)=O,AC50,Paired box protein Pax-8,5.97 µM (active)
C[C@@H]1CN([C@@H](C)CO)C(=O)c2cc(NS(=O)(=O)c3ccc(Cl)cc3)ccc2O[C@@H](C)CCCCO[C@H]1CN(C)Cc1ccc(C(F)(F)F)cc1,AC50,Paired box protein Pax-8,8.29 µM (active)
CN(C)c1ccc(/C=N/Nc2ccc(-n3ccnc3)nn2)cc1,EC50,[1],> 195 µM (not active)
same,AC50,[16],3.85 µM (active)
CCOC(=O)C1CCCN(c2nc3ccccc3nc2C(C#N)C(=O)OCC)C1 (configuration not stated),CC50,[12],33.7 µM (active)
C=CC[N+]1(C)CC[C@]23c4c5ccc(O)c4O[C@H]2C(=O)CC[C@@]3(O)[C@H]1C5 (some centres not stated) [NALOXONE METHIODIDE],IC50,[6],9.73 µM (active)
